Here are results for four compounds from ChEMBL document CHEMBL1128375, “Prodrugs of nitroxyl as potential aldehyde dehydrogenase inhibitors vis-a-vis vascular smooth muscle relaxants” (J Med Chem, 1995).

SMILES strings stand for the structures.

The species named for this assay is Oryctolagus cuniculus. Nature of the assay: In vitro relaxation of precontracted rabbit aortic rings. The note with it: Aorta. Type of assay: functional.
As usually defined, the EC50 is the concentration needed to bring the measured effect to its halfway point. A higher EC50 goes with weaker potency. Turning to `O=S(=O)(NO)c1ccc(Cl)cc1`, the midpoint of the response, the EC50, lay at 1.36 µM.

Compound `O=C1c2ccccc2S(=O)(=O)N1O` gave an EC50 of 14.4 µM.

The compound `O=S(=O)(NO)c1ccccc1` displayed an EC50 of 1.03 µM.

Compound `CC(=O)ON1C(=O)c2ccccc2S1(=O)=O` registered an EC50 of 52.2 µM.
